The source of these data is US7012094B1, “Substituted furans and furanones for the treatment of inflammation” (G.D. Searle, LLC, priority 1994, dated 2006).

For experiment [1], the system named is carrageenan-induced hyperalgesic foot withdrawal. Put plainly: Rat carrageenan-induced analgesia test. The conditions noted are these: oral, 3 mpk (footnote *); 3 h after carrageenan. It is filed as in vivo. Here is the method:
The analgesia test using rat carrageenan was performed with materials, reagents and procedures essentially as described by Hargreaves, et al., (Pain, 32, 77 (1988)). Male Sprague-Dawley rats were treated as previously described for the Carrageenan Foot Pad Edema test. Three hours after the injection of the carrageenan, the rats were placed in a special plexiglass container with a transparent floor having a high intensity lamp as a radiant heat source, positionable under the floor. After an initial twenty minute period, thermal stimulation was begun on either the injected foot or on the contralateral uninjected foot. A photoelectric cell turned off the lamp and timer when light was interrupted by paw withdrawal. The time until the rat withdraws its foot was then measured. The withdrawal latency in seconds was determined for the control and drug-treated groups, and percent inhibition of the hyperalgesic foot withdrawal determined.

A further experiment deals with T1, Murine COX II (Mus musculus, UniProt Q05769).
T1 construct: coding region of either human or murine COX-I or human or murine COX-II was cloned; made in house; host or cells: SF9 insect cells (baculovirus, pVL1393)
T1 sequence (Q05769 18-604): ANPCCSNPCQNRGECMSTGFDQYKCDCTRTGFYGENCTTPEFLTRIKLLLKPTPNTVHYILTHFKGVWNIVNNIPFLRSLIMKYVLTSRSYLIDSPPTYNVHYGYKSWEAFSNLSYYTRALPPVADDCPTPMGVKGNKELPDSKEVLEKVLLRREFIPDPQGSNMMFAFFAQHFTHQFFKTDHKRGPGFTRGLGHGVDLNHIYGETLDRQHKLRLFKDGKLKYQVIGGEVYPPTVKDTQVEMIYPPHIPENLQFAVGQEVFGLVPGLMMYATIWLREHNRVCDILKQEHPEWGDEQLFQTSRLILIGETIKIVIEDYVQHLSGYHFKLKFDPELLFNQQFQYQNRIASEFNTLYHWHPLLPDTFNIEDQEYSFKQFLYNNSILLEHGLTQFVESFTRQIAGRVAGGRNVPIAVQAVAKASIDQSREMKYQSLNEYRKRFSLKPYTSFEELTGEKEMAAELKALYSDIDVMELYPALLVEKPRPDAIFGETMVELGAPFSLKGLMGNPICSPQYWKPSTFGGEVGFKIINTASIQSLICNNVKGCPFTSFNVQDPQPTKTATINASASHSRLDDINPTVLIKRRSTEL
Put plainly: COX II activity in vitro (PGE2 ELISA, recombinant enzyme). The conditions noted are these: arachidonic acid 10 μM, read-out: Murine COX II ID50. It is filed as biochemical. Here is the method: A 2.0 kb fragment containing the coding region of either human or murine COX-I or human or murine COX-II was cloned into a BamH1 site of the baculovirus transfer vector pVL1393 to generate the baculovirus transfer vector. Recombinant baculoviruses were isolated by transfecting 4 μg of baculovirus transfer vector DNA into SF9 cells (2×10e8) along with 200 ng of linearized baculovirus plasmid DNA by the calcium phosphate method. […] The homogenate was centrifuged at 10,000×G for 30 minutes, and the resultant supernatant was stored at −80° C. before being assayed for COX activity.
COX activity was assayed as PGE2 formed/μg protein/time using an ELISA to detect the prostaglandin released. CHAPS-solubilized insect cell membranes containing the appropriate COX enzyme were incubated in a potassium phosphate buffer (50 mM, pH 8.0) containing epinephrine, phenol, and heme with the addition of arachidonic acid (10 μM). […] The PGE2 formed was measured by standard ELISA technology (Cayman Chemical).
Background: ELISA stands for enzyme-linked immunosorbent assay.

Marks after values point to notes of the source that are not given here.

`CS(=O)(=O)c1ccc(-c2csc(Br)c2-c2ccc(F)cc2)cc1` [Example 2, 4-(4-Methylsulfonylphenyl)-3-(4-fluorophenyl)-2-bromothiophene]: the “ANALGESIA % Inhibition @ 3 mpk” value in experiment [1] is listed as 0* %.
Consider `Cc1cc(F)ccc1-c1cscc1-c1ccc(S(C)(=O)=O)cc1` [Example 15, 3-(4-Methylsulfonylphenyl)-4-(2-methyl-4-fluorophenyl) thiophene], for which the IC50 on Murine COX II is less than 100 nM.
